In general, Ki refers to the equilibrium dissociation constant of an inhibitor or competing ligand from its target. The term melting point denotes the temperature of the solid-liquid transition.

The values below come from patent publication US20220000841A1, “INHIBITORS OF METALLO-BETA-LACTAMASES” (CENTRE NATIONAL DE LA RECHERCHE SCIENTIFIQUE, priority 2018, published 2022).

Data set [1] concerns E. coli AS19 [pLBII-VIM2]. Nature of the data set: microbe, parasite or virus in culture. The class given is cell-based, Escherichia coli. As for the experimental part: (§1) A] A disk-diffusion test in which the inhibitor was added (40-320 μg) to a disk containing a defined amount of a β-lactam antibiotic (such as 30 μg cefoxitin) was used to evaluate the antimicrobial activity (corresponding to the diameter of the growth inhibition zone, expressed in mm) of the combination when compared of that of the antibiotic alone.
(§2) These tests were performed on isogenic laboratory strains (such as Escherichia coli DH5a or XL-1) producing a defined MBL after its transformation with a pLB-II plasmid derivative (such as pLBII-VIM-2) [Borgianni L., Vandenameele J., Matagne A., Bini L., Bonomo R. A., Frere J. M., Rossolini G. M., Docquier J. D. (2010) Antimicrob. Agents Chemother. 54, 3197-3204] harbouring a cloned gene encoding the functional metallo-β-lactamase. Alternatively, hyperpermeable strains (such as Escherichia coli AS19) were used instead of Escherichia coli DH5α or XL-1.

The test system of data set [2] is E. coli LZ2310[pLBII-VIM2] (E. coli K12 ΔnorE ΔmdfA N43 acrA1). The class given is cell-based, Escherichia coli. As to conditions: EDTA 220 μg added to cefoxitin disk (30 μg); cefoxitin alone 14 mm. As to the method:
as §1, §2

The next data set deals with IMP-1 (Serratia marcescens, UniProt P52699). The experiment in a line: Enzymatic assay for determination of inhibition constants, reporter substrate method, purified IMP-1.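 Further: purified IMP-1 (1-70 nM) hydrolysing a reporter substrate, initial rates followed as absorbance change at 260, 300 or 482 nm in 50 mM HEPES pH 7.5.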 The class given is biochemical. As to conditions: isolated MBL, competitive inhibition model.
Another data set concerns the target VIM-4 (Pseudomonas aeruginosa, UniProt Q8KRJ3). Nature of the data set: Enzymatic assay for determination of inhibition constants, reporter substrate method, purified VIM-4.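 Further: purified VIM-4 (1-70 nM) in 50 mM HEPES pH 7.5, reporter substrate hydrolysis rate tracked by absorbance change (nitrocefin 482 nm, imipenem or meropenem 300 nm, cefotaxime 260 nm).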 The class given is biochemical. The conditions noted are these: at 100 μM (maximal tested concentration).
Another data set deals with NDM-1 (Klebsiella pneumoniae, UniProt C7C422). Nature of the data set: Enzymatic assay for determination of inhibition constants, reporter substrate method, purified NDM-1.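 Further: purified enzyme activity followed as absorbance change from reporter substrate hydrolysis on a UV-Vis spectrophotometer or plate reader, 50 mM HEPES pH 7.5.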 The class given is biochemical. As to conditions: isolated MBL, competitive inhibition model.
The next data set has as its target VIM-1 (Pseudomonas aeruginosa, UniProt A0A0F7KYQ8). Nature of the data set: Enzymatic assay for determination of inhibition constants, reporter substrate method, purified VIM-1.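 Further: initial hydrolysis rates of a reporter β-lactam (imipenem, meropenem, cefotaxime or nitrocefin) followed by absorbance change, purified enzyme at 1–70 nM in 50 mM HEPES pH 7.5.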 As to conditions: isolated MBL, competitive inhibition model. The class given is biochemical.
Data set [3] in a line: Cell membrane integrity assay, LDH release, compound cytotoxicity. The class given is cell-based. The conditions noted are these: human, HeLa cells, 0.001 to 1.2 mM, read-out: IC50, compound concentration inducing 50% cytotoxicity (LDH release). As for the experimental part:
Selected compounds were tested for their ability to induce the lysis of eukaryotic cells by measuring the release of lactate dehydrogenase enzyme (LDH) from HeLa cells, after incubating such cells for 24 hours (37° C., 5% CO2) in Dulbecco's modified Eagle medium supplemented with 10% fetal bovine serum, 4.5 mg/ml glucose and 2 mM L-glutamine in the absence and presence of the compound at concentrations ranging from 0.001 to 1.2 mM. LDH activity was determined using commercial kits (such as the CytoTox 96® Non-Radioactive Cytotoxicity Assay, Promega, Madison, Wis., U.S.A.) in the samples, containing HeLa cells incubated with the various concentrations of the assayed compound or with the solvent or buffer used to resuspend such compounds (vehicle control).
Further controls included samples containing the medium only (medium control) or in which cell lysis was induced by the addition of 9% Triton X-100 (maximum LDH release control). The percentage of cytotoxicity was computed as 100×(Sample LDH release)/(maximum LDH release). The variation of the percentage of cytotoxicity is usually dependent on the compound concentration and allowed to compute an IC50 value, corresponding to the compound concentration inducing 50% cytoxicity.
Background: Release of lactate dehydrogenase indicates damage to the cell membrane.

Another data set has as its target VIM-2 (Escherichia coli, UniProt Q5U7L7). Nature of the data set: Enzymatic assay for determination of inhibition constants, reporter substrate method, purified VIM-2.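 Further: purified VIM-2 hydrolysing a reporter substrate (imipenem, meropenem, cefotaxime or nitrocefin), reaction rate read as absorbance change, HEPES 50 mM at pH 7.5.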 In kind it is biochemical.

The structures appear in SMILES notation. Read-outs that look alike come from different tables or passages of the source.

Sequence of IMP-1 (P52699 19-246, looked up, species assumed): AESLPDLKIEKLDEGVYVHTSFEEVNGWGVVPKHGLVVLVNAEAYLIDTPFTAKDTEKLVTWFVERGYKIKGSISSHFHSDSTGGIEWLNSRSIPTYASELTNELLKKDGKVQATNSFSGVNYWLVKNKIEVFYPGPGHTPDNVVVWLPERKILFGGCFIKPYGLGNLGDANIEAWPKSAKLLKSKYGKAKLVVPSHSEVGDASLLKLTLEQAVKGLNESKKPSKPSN
Sequence of NDM-1 (C7C422 29-270, looked up, species assumed): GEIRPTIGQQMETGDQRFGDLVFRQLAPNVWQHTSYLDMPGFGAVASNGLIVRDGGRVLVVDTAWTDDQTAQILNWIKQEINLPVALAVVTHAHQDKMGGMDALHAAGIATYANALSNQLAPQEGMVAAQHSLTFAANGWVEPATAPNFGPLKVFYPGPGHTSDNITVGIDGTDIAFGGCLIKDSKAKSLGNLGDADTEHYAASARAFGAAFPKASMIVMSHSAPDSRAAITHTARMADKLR

As to `O=C(O)CN(CCN(CC(=O)O)CC(=O)O)CC(=O)O` [EDTA, reference compound], the “Inhibition zone diameter AS 19” value in data set [1] (EDTA 220 μg added to cefoxitin disk (30 μg), cefoxitin alone 16 mm) is on record as 26 mm. Moreover, the “Inhibition zone diameter LZ 2310” value in data set [2] is listed as 30 mm.
Turning to `Cc1ccccc1-c1n[nH]c(=S)n1CCc1ccccc1C(=O)O` [Compound 14, 2-{2-[3-(2-methylphenyl)-5-sulfanylidene-4,5-dihydro-1H-1,2,4-triazol-4-yl]ethyl}benzoic acid], the melting point lay within 180 to 181 °C. In addition, the Ki at IMP-1 is > 100 µM. The zone of inhibition at 40 µg/disc in data set [1] (Escherichia coli, read-out: Inhibition zone diameter AS 19, difference between measured diameter and diameter without compound) was found to be 3 mm. Besides, the “% inhibition VIM-4” value on VIM-4 stood at 80% at 100 μM. In addition, on NDM-1, the Ki was > 100 µM. This compound displayed a Ki at VIM-1 of 1 to 10 µM. In addition, in data set [3], the IC50 at 24 h is > 1200 µM. In addition, at VIM-2 (as listed in Table 2, read-out: Ki on VIM-2), the Ki was < 1 µM. In addition, on VIM-2 (isolated MBL, competitive inhibition model, read-out: Ki VIM-2), the Ki was < 1 µM.
